Assays:
[1] = biological target: TrkA kinase (Homo sapiens, UniProt P04629); experiment: TrkA kinase assay (mobility shift assay); type: biochemical; settings: numeric values; read-out: Trk A Kinase IC50
Procedure, shortened: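 Caliper mobility-shift readout of FAM-labelled peptide conversion by TrkA in 50 mM HEPES pH 7.5, 0.0015% Brij-35, with ATP; enzyme preincubated 10 min with compound (10-point dilution), reaction at 28 °C, EDTA stop. Inhibition relative to DMSO and no-enzyme controls; IC50 by four-parameter fit.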

[2] = Liver microsomes metabolic stability assay, human; type: in vitro ADME; settings: human liver microsomes 0.5 mg/mL, 37° C.; for half-life at 2 μM: read-out: t1/2 Human
Procedure: (§1) Example 203 Liver Microsomes Metabolic Stability Assay
(§2) Pooled human liver microsomes (Cat. 452117) were purchased from Corning. Pooled male rat liver microsomes (Cat. R1000) and pooled male mouse liver microsomes (Cat. M1000) were purchased from XENOTECH. Microsomes were stored at −80° C.
(§3) 1) Make a master solution containing phosphate buffer, ultra-pure H2O and MgCl2 solution according to Table 14.
(§4) 2) Two separated experiments were performed as follows.
(§5) a) With NADPH: 10 μL of 20 mg/mL liver microsomes and 40 μL of 10 mM NADPH were added to the incubations. The final concentrations of microsomes and NADPH were 0.5 mg/mL and 1 mM, respectively.
(§6) b) Without NADPH: 10 μL of 20 mg/mL liver microsomes and 40 μL of ultra-pure H2O were added to the incubations. The final concentration of microsomes was 0.5 mg/mL.
(§7) 3) The reaction was started with the addition of 4 μL test compounds solutions or control compound solution (verapamil) at the final concentration of 2 μM and carried out at 37° C.
(§8) 4) Aliquots of 50 μL were taken from the reaction solution at 0, 15, 30, 45 and 60 min. The reaction solutions were stopped by the addition of 4 volumes of cold acetonitrile with 1S (100 nM alprazolam, 200 nM caffeine, 200 nM labetalol and 2 μM ketoprofen). Samples were centrifuged at 3,220 g for 40 minutes. Aliquot of 100 μL of the supernatant was mixed with 100 μL of ultra-pure H2O and then used for LC-MS/MS analysis. All experiments were performed in duplicate.
(§9) The slope value, k, was determined by linear regression of the natural logarithm of the remaining percentage of the parent drug vs. incubation time curve.
(§10) The in vitro half-life (in vitro t1/2) was determined from the slope value:
(§11) Conversion of the in vitro t1/2 (in min) into the in vitro intrinsic clearance (in vitro CLint, in μL/min/mg proteins) was done using the following equation (mean of duplicate determinations): […]
(§12) The control compound (verapamil) was included in the assay. Any value of the compounds that was not within the specified limits will be rejected and the experiment will be repeated.

[3] = Liver microsomes metabolic stability assay, rat; type: in vitro ADME; settings: male, rat liver microsomes 0.5 mg/mL, 37° C.; for half-life at 2 μM: read-out: t1/2 Rat
Procedure: as §1, §2, §3, §4, §5, §6, §7, §8, §9, §10, §11, §12

[4] = Liver microsomes metabolic stability assay, mouse; type: in vitro ADME; settings: male, mouse liver microsomes 0.5 mg/mL, 37° C.; for half-life at 2 μM: read-out: t1/2 Mouse
Procedure: as §1, §2, §3, §4, §5, §6, §7, §8, §9, §10, §11, §12

TrkA kinase, sequence (P04629 33-796): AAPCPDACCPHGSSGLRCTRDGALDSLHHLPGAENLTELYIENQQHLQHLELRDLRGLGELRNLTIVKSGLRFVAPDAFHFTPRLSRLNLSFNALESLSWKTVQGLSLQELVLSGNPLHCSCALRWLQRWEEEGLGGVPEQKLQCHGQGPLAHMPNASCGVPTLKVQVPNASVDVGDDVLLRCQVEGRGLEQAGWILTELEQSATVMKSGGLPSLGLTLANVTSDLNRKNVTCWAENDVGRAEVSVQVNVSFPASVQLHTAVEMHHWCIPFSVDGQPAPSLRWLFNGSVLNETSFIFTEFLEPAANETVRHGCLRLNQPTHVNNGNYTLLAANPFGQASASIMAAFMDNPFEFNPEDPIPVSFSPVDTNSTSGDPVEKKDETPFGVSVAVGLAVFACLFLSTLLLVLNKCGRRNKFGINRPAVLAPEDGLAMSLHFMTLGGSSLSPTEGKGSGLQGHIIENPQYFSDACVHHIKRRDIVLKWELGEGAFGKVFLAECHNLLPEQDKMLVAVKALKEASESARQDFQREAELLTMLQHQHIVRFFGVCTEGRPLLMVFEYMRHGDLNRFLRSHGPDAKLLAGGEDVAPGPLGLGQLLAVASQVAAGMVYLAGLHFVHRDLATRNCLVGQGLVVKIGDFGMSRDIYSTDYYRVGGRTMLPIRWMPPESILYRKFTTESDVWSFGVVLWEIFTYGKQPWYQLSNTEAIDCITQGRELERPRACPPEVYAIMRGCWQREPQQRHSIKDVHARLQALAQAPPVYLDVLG

Row | Compound | IC50 [1] [nM] | microsomal CLint at 2 μM [2] [µL/min/mg] | half-life at 2 μM [2] [h] | microsomal CLint at 2 μM [3] [µL/min/mg] | half-life at 2 μM [3] [h] | microsomal CLint at 2 μM [4] [µL/min/mg] | half-life at 2 μM [4] [h]
1 | C[C@@](O)(c1nnc(-c2cnn3ccc(N4CCC[C@@H]4c4cc(F)ccc4F)nc23)[nH]1)C(F)(F)F [Compound 26, (R)-2-(5-(5-((R)-2-(2,5-difluorophenyl)pyrrolidin-1-yl)pyrazolo[1,5-a]pyrimidin-3-yl)-4H-1,2,4-triazol-3-yl)-1,1,1-trifluoropropan-2-ol] | 2.6 | 23 | 1 | 40.5 | 0.57 | 25.9 | 0.892
2 | Fc1ccc(F)c([C@H]2CCCN2c2ccn3ncc(-c4nnc(-c5ccc6c(c5)CCNC6)[nH]4)c3n2)c1 [Compound 36, (R)-6-(5-(5-(2-(2,5-difluorophenyl)pyrrolidin-1-yl)pyrazolo[1,5-a]pyrimidin-3-yl)-4H-1,2,4-triazol-3-yl)-1,2,3,4-tetrahydroisoquinoline] | 1.14 | 4.4 | 5.25 | 19.2 | 1.2 | 4.6 | 5.02
3 | Fc1ccc(F)c([C@H]2CCCN2c2ccn3ncc(-c4nnc(-c5ccc(N6CCNCC6)cc5)[nH]4)c3n2)c1 [Compound 40, (R)-5-(2-(2,5-difluorophenyl)pyrrolidin-1-yl)-3-(5-(4-(piperazin-1-yl)phenyl)-4H-1,2,4-triazol-3-yl)pyrazolo[1,5-a]pyrimidine] | 1.56 | 3.2 | 7.22 | 4.6 | 5.02 | 12.4 | 1.86
4 | Fc1ccc(F)c([C@H]2CCCN2c2ccn3ncc(-c4nc5cnccc5[nH]4)c3n2)c1 [Compound 65, (R)-2-(5-(2-(2,5-difluorophenyl)pyrrolidin-1-yl)pyrazolo[1,5-a]pyrimidin-3-yl)-1H-imidazo[4,5-c]pyridine] | 0.27 | 12.6 | 1.83 | 17.2 | 1.34 | 24 | 0.963
5 | Fc1ccc(F)c([C@H]2CCCN2c2ccn3ncc(-c4nc5cc(OC(F)(F)F)ccc5[nH]4)c3n2)c1 [Compound 71, (R)-5-(2-(2,5-difluorophenyl)pyrrolidin-1-yl)-3-(5-(trifluoromethoxy)-1H-benzo[d]imidazol-2-yl)pyrazolo[1,5-a]pyrimidine] | 27.1 | 17 | 1.36 | 12.2 | 1.89 | 10.8 | 2.14
6 | Fc1ccc(F)c([C@H]2CCCN2c2ccn3ncc(-c4nc5cnncc5[nH]4)c3n2)c1 [Compound 76, (R)-2-(5-(2-(2,5-difluorophenyl)pyrrolidin-1-yl)pyrazolo[1,5-a]pyrimidin-3-yl)-1H-imidazo[4,5-d]pyridazine] | 0.66 | 21.2 | 1.09 | 22.2 | 1.04 | 15.6 | 1.48
7 | Fc1ccc(F)c([C@H]2CCCN2c2ccn3ncc(-c4nc5cc6c(cc5[nH]4)OC(F)(F)O6)c3n2)c1 [Compound 79, (R)-6-(5-(2-(2,5-difluorophenyl)pyrrolidin-1-yl)pyrazolo[1,5-a]pyrimidin-3-yl)-2,2-difluoro-5H-[1,3]dioxolo[4′,5′:4,5]benzo[1,2-d]imidazole] | 11.9 | 10.2 | 2.26 | 10.8 | 2.14 | 10 | 2.31
8 | Fc1ccc(F)c([C@H]2CCCN2c2ccn3ncc(-c4nc5ccc(OC(F)(F)F)cc5o4)c3n2)c1 [Compound 80, (R)-2-(5-(2-(2,5-difluorophenyl)pyrrolidin-1-yl)pyrazolo[1,5-a]pyrimidin-3-yl)-6-(trifluoromethoxy)benzo[d]oxazole] | 23.6 | 2.4 | 9.62 | 7 | 3.3 | 8.4 | 2.75
9 | COc1cc2nc(-c3cnn4ccc(N5CCC[C@@H]5c5cc(F)ccc5F)nc34)[nH]c2cc1C(=O)O [Compound 90, (R)-2-(5-(2-(2,5-difluorophenyl)pyrrolidin-1-yl)pyrazolo[1,5-a]pyrimidin-3-yl)-5-methoxy-1H-benzo[d]imidazole-6-carboxylic acid] | 0.44 | 5.6 | 4.12 | 1.4 | 16.5 | 0.8 | 28.9
10 | Fc1ccc(F)c([C@H]2CCCN2c2ccn3ncc(-c4nc5cc(Cl)c(OC(F)(F)F)cc5[nH]4)c3n2)c1 [Compound 92, (R)-3-(5-chloro-6-(trifluoromethoxy)-1H-benzo[d]imidazol-2-yl)-5-(2-(2,5-difluorophenyl)pyrrolidin-1-yl)pyrazolo[1,5-a]pyrimidine] | 20.7 | 20.4 | 1.13 | 10.2 | 2.26 | 5.6 | 4.12
11 | Fc1ccc(F)c([C@H]2CCCN2c2ccn3ncc(-c4nc5cc6c(cc5[nH]4)OCCO6)c3n2)c1 [Compound 96, (R)-2-(5-(2-(2,5-difluorophenyl)pyrrolidin-1-yl)pyrazolo[1,5-a]pyrimidin-3-yl)-6,7-dihydro-1H-[1,4]dioxino[2′,3′:4,5]benzo[1,2-d]imidazole] | 0.7 | 37 | 0.624 | 29.4 | 0.786 | 32 | 0.722
12 | COc1cc2[nH]c(-c3cnn4ccc(N5CCC[C@@H]5c5cc(F)ccc5F)nc34)nc2cc1Cl [Compound 112, (R)-3-(5-chloro-6-methoxy-1H-benzo[d]imidazol-2-yl)-5-(2-(2,5-difluorophenyl)pyrrolidin-1-yl)pyrazolo[1,5-a]pyrimidine] | 3.2 | 16.8 | 1.38 | 34 | 0.679 | 27.4 | 0.843
